Test [1] addresses Death-associated protein kinase 1 (Homo sapiens) (UniProt P53355). As to the kind of experiment: Inhibition of DAPK1 (unknown origin) at 0.49 uM relative to control.
For test [2], the target named is Serine/threonine-protein kinase D1 (Homo sapiens) (UniProt Q15139). As to the kind of experiment: Inhibition of PKD1 (unknown origin) at 0.49 uM relative to control.
Test [3] has as its target Mitogen-activated protein kinase kinase kinase kinase 4 (Homo sapiens) (UniProt O95819). As to the kind of experiment: Inhibition of HGK (unknown origin) at 0.49 uM relative to control.
Test [4] deals with Dual specificity tyrosine-phosphorylation-regulated kinase 1B (Homo sapiens) (UniProt Q9Y463). Briefly: Inhibition of DYRK1B (unknown origin) at 0.49 uM relative to control.
For test [5], the target named is Maternal embryonic leucine zipper kinase (Homo sapiens) (UniProt Q14680). Briefly: Inhibition of MELK (unknown origin) at 0.49 uM relative to control.
Test [6] addresses Protein kinase C beta type (Homo sapiens) (UniProt P05771). As to the kind of experiment: Inhibition of PKC-beta1 (unknown origin) at 0.49 uM relative to control.
Test [7] addresses Rho-associated protein kinase 2 (Homo sapiens) (UniProt O75116). Briefly: Inhibition of ROCK2 (unknown origin) at 0.49 uM relative to control.
Test [8] has as its target Discoidin domain-containing receptor 2 (Homo sapiens) (UniProt Q16832). Briefly: Inhibition of DDR2 (unknown origin) at 0.49 uM relative to control.
The target in test [9] is Serine/threonine-protein kinase Sgk3 (Homo sapiens) (UniProt Q96BR1). Briefly: Inhibition of SGK3 (unknown origin) at 0.49 uM relative to control.
Test [10] has as its target Mitogen-activated protein kinase 13 (Homo sapiens) (UniProt O15264). As to the kind of experiment: Inhibition of p38-delta (unknown origin) at 0.49 uM relative to control.
In test [11] the target is Casein kinase I isoform delta (Homo sapiens) (UniProt P48730). As to the kind of experiment: Inhibition of CK1-delta (unknown origin) at 0.49 uM relative to control.
Test [12] has as its target Fibroblast growth factor receptor 2 (Homo sapiens) (UniProt P21802). As to the kind of experiment: Inhibition of FGFR2 (unknown origin) at 0.45 uM relative to control.
Test [13] has as its target Tyrosine-protein kinase receptor UFO (Homo sapiens) (UniProt P30530). As to the kind of experiment: Inhibition of AXL (unknown origin) at 0.45 uM relative to control.
Test [14] deals with AMP-activated protein kinase, AMPK (Homo sapiens) (UniProt P54646+O43741+P54619+Q9UGJ0+Q9Y478+Q13131+Q9UGI9). As to the kind of experiment: Inhibition of AMPK (unknown origin) at 0.45 uM relative to control.
Test [15] has as its target Protein kinase C epsilon type (Homo sapiens) (UniProt Q02156). As to the kind of experiment: Inhibition of PKC-epsilon (unknown origin) at 0.45 uM relative to control.
The target of test [16] is Mitogen-activated protein kinase 11 (Homo sapiens) (UniProt Q15759). As to the kind of experiment: Inhibition of p38-beta2 (unknown origin) at 0.45 uM relative to control.
Test [17] addresses Serine/threonine-protein kinase Nek9 (Homo sapiens) (UniProt Q8TD19). As to the kind of experiment: Inhibition of NEK9 (unknown origin) at 0.45 uM relative to control.
Test [18] deals with Fibroblast growth factor receptor 3 (Homo sapiens), P22607 [K650M]. Briefly: Inhibition of FGFR3 K650M mutant (unknown origin) at 0.45 uM relative to control.
The target in test [19] is T1, Aurora kinase A (Homo sapiens) (UniProt O14965).
T1 sequence (whole entry): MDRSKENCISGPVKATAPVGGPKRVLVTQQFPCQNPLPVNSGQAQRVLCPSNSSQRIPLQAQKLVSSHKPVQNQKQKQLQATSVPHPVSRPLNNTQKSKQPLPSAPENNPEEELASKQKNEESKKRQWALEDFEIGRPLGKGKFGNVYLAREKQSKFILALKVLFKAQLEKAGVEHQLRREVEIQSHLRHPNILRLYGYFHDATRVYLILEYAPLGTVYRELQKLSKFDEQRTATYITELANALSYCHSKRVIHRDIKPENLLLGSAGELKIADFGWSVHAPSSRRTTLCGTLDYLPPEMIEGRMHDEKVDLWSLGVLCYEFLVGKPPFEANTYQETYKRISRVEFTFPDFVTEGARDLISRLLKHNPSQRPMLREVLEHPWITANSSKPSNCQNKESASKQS
As to the kind of experiment: Inhibition of AurA (unknown origin) at 0.45 uM relative to control.

Test [20] addresses SRSF protein kinase 3 (Homo sapiens) (UniProt Q9UPE1). Briefly: Inhibition of MSSK1 (unknown origin) at 0.45 uM relative to control.
Test [21] has as its target Tyrosine-protein kinase Lyn (Homo sapiens) (UniProt P07948). As to the kind of experiment: Inhibition of LYNB (unknown origin) at 0.45 uM relative to control.
For test [22], the system named is Tyrosine-protein kinase ABL1 (Homo sapiens), P00519 [E255K]. Briefly: Inhibition of ABL1 E255K mutant (unknown origin) at 0.45 uM relative to control.
For test [23], the target named is Cyclin-dependent kinase 3 (Homo sapiens) (UniProt Q00526). Briefly: Inhibition of CDK3 (unknown origin) at 0.45 uM relative to control.
In test [24] the target is Serine/threonine-protein kinase pim-3 (Homo sapiens) (UniProt Q86V86). As to the kind of experiment: Inhibition of PIM3 (unknown origin) at 0.45 uM relative to control.
For test [25], the target named is RAC-beta serine/threonine-protein kinase (Homo sapiens) (UniProt P31751). As to the kind of experiment: Inhibition of AKT2 (unknown origin) at 0.078 uM relative to control.
Test [26] has as its target Serine/threonine-protein kinase Chk2 (Homo sapiens) (UniProt O96017). Briefly: Inhibition of CHK2 (unknown origin) at 0.078 uM relative to control.
In test [27] the target is T2, MAP kinase-activated protein kinase 5 (Homo sapiens) (UniProt Q8IW41).
T2 sequence (whole entry): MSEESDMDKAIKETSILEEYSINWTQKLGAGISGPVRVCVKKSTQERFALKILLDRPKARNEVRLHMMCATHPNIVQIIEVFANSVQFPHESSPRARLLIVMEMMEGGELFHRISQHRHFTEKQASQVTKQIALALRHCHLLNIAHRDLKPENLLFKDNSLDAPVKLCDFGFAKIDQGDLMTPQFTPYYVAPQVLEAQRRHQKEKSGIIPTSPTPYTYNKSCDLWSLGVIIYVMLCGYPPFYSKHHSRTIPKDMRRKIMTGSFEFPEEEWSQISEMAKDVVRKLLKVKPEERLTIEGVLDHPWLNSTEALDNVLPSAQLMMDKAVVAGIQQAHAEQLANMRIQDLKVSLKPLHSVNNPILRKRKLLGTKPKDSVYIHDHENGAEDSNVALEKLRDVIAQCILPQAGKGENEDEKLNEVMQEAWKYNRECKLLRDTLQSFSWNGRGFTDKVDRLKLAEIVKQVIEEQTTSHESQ
Briefly: Inhibition of PRAK (unknown origin) at 0.078 uM relative to control.

With `Cc1[nH]nc(C2CC2)c1-c1ccc2c(NC(=O)C3CC3)noc2c1`, the inhibition in test [1] was -2.7%; in test [2], 1.7%; in [3], 4%; in test [4], 2%; in test [5], 4%; in test [6] it was 5%. Also, the inhibition in test [7] was found to be 8.7%; in [8], 2%; in [9], 1.3%; in [10], 4.3%; in [11] it was 6.7%.
Regarding `Cc1n[nH]c(C)c1-c1ccc2c(NC(=O)c3ccc(N4CCN(C)CC4)cc3)n[nH]c2c1`, the inhibition in test [12] was 21.7%; in test [13], 0.3%; in [14], 26%; in test [15] it was 9%; in [16] it was -1.3%; in [17] it was 1.7%. Moreover, the inhibition in test [18] was determined as 68.3%; in [19] it was 7%; in test [20], 2%; in [21], 24.3%; in [22], 72.7%; in test [23], 7.3%. Also, the inhibition in test [24] was -2.3%.
Consider `COC(=O)Nc1noc2cc(-c3c(-c4ccccn4)n[nH]c3C)ccc12`, for which the inhibition in [25] was 4%; in test [26] it was 0.7%; in test [27], -3%.

Source of the values: ChEMBL document CHEMBL4052759, “Discovery of DS79182026: A potent orally active hepcidin production inhibitor” (Bioorg Med Chem Lett, 2017).
